The text below walks through data of patent US8280710B2, “Method for determining thermal stability of collagen or collagen-like peptide” (University of Medicine and Dentistry of New Jersey, priority 2005, dated 2012).

What is called ΔTm is the shift of the melting midpoint relative to a reference.

Non-standard residues stand in square brackets, D forms with d. Residues, ends and D or L forms follow the SMILES beside them. Hyp = O=C(O)[C@@H]1C[C@@H](O)CN1

Data set [1] is described as follows: Method for predicting global Tm of collagen peptides from amino acid sequence. The conditions noted are these: observed minus predicted, peptides of Table 3. On the procedure:
The global thermal stability of homotrimeric triple helical peptides with length of at least 6 tripeptide units and, in most cases, containing 10 tripeptide units was determined as follows.
For the total number of triplets n in a given peptide, the base Tm^0(n) for (Pro-Hyp-Gly) or (Pro-Pro-Gly)n was calculated from the length dependence (Equation 1), including any effect of blocking groups;
The melting temperature value was decreased for every triplet in the sequence that was not Gly-Pro-Hyp, subtracting a value of ΔTm^GXY (Table 1). The N-terminal and C-terminal tripeptide units were excluded from the calculation due to the staggering of the chains and the disorder for the peptide ends (Bella et al. (1994) supra; Li, et al. (1993) Biochemistry 32:7377-7387; Kramer, et al. (2001) J. Mol. Biol. 301:1191-1205).
The resulting value for the peptide melting temperature was adjusted using the ΔTm^int values for interactions between neighboring tripeptides (Table 2).
The method was formulated as follows.
To extrapolate the dependence of the Tm of the host peptides on peptide length, the experimental values for (Pro-Hyp-Gly)n and (Pro-Pro-Gly)n versus n, where n is the number of tripeptide units, were fit to the exponential decay function
[formula] where Tm^0(n) is defined as the base thermal stability of the repeating polytripeptide standard, Tm^max is the maximum melting temperature, and the constant n0 represents the length of the repeating peptide with Tm=0.

For data set [2] the following is noted: peptide of Table 3, defined standard conditions. On the procedure: The propensity measurements for all 20 amino acid residues in the Xaa1 position in a Gly-Xaa1-Hyp context and all 20 amino acid residues in the Xaa2 position in a Gly-Pro-Xaa2 context were determined by measuring thermal stability of host-guest peptides (Persikov, et al. (2000) supra).
The Tm values of all host-guest peptides were measured under a set of standard conditions, with c=1 mg/ml in phosphate-buffered saline, pH 7.0, and with a heating rate average of 0.1° C./minute (Persikov, et al. (2004) supra).

`CC(=O)NCC(=O)N1CCC[C@H]1C(=O)N1C[C@H](O)C[C@H]1C(=O)NCC(=O)N1CCC[C@H]1C(=O)N1C[C@H](O)C[C@H]1C(=O)NCC(=O)N[C@@H](CCCNC(=N)N)C(=O)N1C[C@H](O)C[C@H]1C(=O)NCC(=O)N[C@@H](CCCCN)C(=O)N[C@@H](CCCNC(=N)N)C(=O)NCC(=O)N[C@@H](CCCCN)C(=O)N[C@@H](CCC(N)=O)C(=O)NCC(=O)N1CCC[C@H]1C(=O)N1C[C@H](O)C[C@H]1C(=O)NCC(=O)N1CCC[C@H]1C(=O)N1C[C@H](O)C[C@H]1C(=O)NCC(=O)N1CCC[C@H]1C(=O)N1C[C@H](O)C[C@H]1C(=O)NCC(=O)NCC(N)=O` [AchE-HG-C3, Ac-GPO-GPO-GRO-GKR-GKQ-GPO-GPO-GPO-GG-NH2] (Ac-GP[Hyp]GP[Hyp]GR[Hyp]GKRGKQGP[Hyp]GP[Hyp]GP[Hyp]GG-NH2): the thermal shift (ΔTm) in data set [1] was −2.7 °C. For the same compound, in data set [2], the “Tm^obs” value was 21.3 °C.

On to `CC(=O)NCC(=O)N1CCC[C@H]1C(=O)N1C[C@H](O)C[C@H]1C(=O)NCC(=O)N1CCC[C@H]1C(=O)N1C[C@H](O)C[C@H]1C(=O)NCC(=O)N1CCC[C@H]1C(=O)N1C[C@H](O)C[C@H]1C(=O)NCC(=O)N[C@@H](CCCNC(=N)N)C(=O)N[C@@H](CCCCN)C(=O)NCC(=O)N[C@@H](CCCNC(=N)N)C(=O)N1C[C@H](O)C[C@H]1C(=O)NCC(=O)N1CCC[C@H]1C(=O)N1C[C@H](O)C[C@H]1C(=O)NCC(=O)N1CCC[C@H]1C(=O)N1C[C@H](O)C[C@H]1C(=O)NCC(=O)N1CCC[C@H]1C(=O)N1C[C@H](O)C[C@H]1C(=O)NCC(=O)NCC(N)=O` [AchE-HG-N1, Ac-GPO-GPO-GPO-GRK-GRO-GPO-GPO-GPO-GG-NH2] (Ac-GP[Hyp]GP[Hyp]GP[Hyp]GRKGR[Hyp]GP[Hyp]GP[Hyp]GP[Hyp]GG-NH2), for which the ΔTm in data set [1] was −0.6 °C. Further, the “Tm^obs” value in data set [2] came out at 22.2 °C.

Regarding `CC(=O)NCC(=O)N1CCC[C@H]1C(=O)N[C@@H](C)C(=O)NCC(=O)N1CCC[C@H]1C(=O)N[C@@H](C)C(=O)NCC(=O)N1CCC[C@H]1C(=O)N[C@H](C(=O)NCC(=O)N1CCC[C@H]1C(=O)N[C@@H](C)C(=O)NCC(=O)N[C@@H](C)C(=O)N[C@@H](CCCNC(=N)N)C(=O)NCC(=O)N1CCC[C@H]1C(=O)N[C@@H](C)C(=O)NCC(=O)N1CCC[C@H]1C(=O)N1C[C@H](O)C[C@H]1C(=O)NCC(=O)N1CCC[C@H]1C(=O)N[C@@H](C)C(=O)NCC(=O)N1CCC[C@H]1C(=O)N1C[C@H](O)C[C@H]1C(=O)NCC(=O)N1CCC[C@H]1C(=O)N1C[C@H](O)C[C@H]1C(=O)NCC(=O)N[C@H](C(N)=O)C(C)C)C(C)C` [T1-892 (O24A), Ac-(GPA)2-GPV-GPA-GAR-GPA-GPO-GPA-(GPO)2-GV-NH2] (Ac-GPAGPAGPVGPAGARGPAGP[Hyp]GPAGP[Hyp]GP[Hyp]GV-NH2), in data set [1], the ΔTm is 1.4 °C. Besides, in data set [2], the “Tm^obs” value was 23.2 °C.

As to `CC[C@H](C)[C@H](NC(=O)CNC(=O)[C@@H]1C[C@@H](O)CN1C(=O)[C@H](CCCCN)NC(=O)CNC(=O)[C@@H]1C[C@@H](O)CN1C(=O)[C@H](CCC(=O)O)NC(=O)CNC(=O)[C@H](C)NC(=O)[C@H](CC(C)C)NC(=O)CNC(C)=O)C(=O)N1C[C@H](O)C[C@H]1C(=O)NCC(=O)N[C@@H](CC(C)C)C(=O)N1C[C@H](O)C[C@H]1C(=O)NCC(=O)N[C@@H](CCCNC(=N)N)C(=O)N[C@@H](C)C(=O)NCC(=O)N1CCC[C@H]1C(=O)N1C[C@H](O)C[C@H]1C(=O)NCC(=O)N1CCC[C@H]1C(=O)N1C[C@H](O)C[C@H]1C(=O)NCC(=O)N1CCC[C@H]1C(=O)N1C[C@H](O)C[C@H]1C(=O)NCC(=O)N1CCC[C@H]1C(=O)N1C[C@H](O)C[C@H]1C(=O)NCC(=O)N[C@H](C(N)=O)C(C)C` [T7-2031, Ac-GLA-GEO-GKO-GIO-GLO-GRA-(GPO)4-GV-NH2] (Ac-GLAGE[Hyp]GK[Hyp]GI[Hyp]GL[Hyp]GRAGP[Hyp]GP[Hyp]GP[Hyp]GP[Hyp]GV-NH2), the ΔTm in data set [1] was 2.1 °C. In data set [2], the “Tm^obs” value came out at 25.4 °C.

In the case of `CC(=O)NCC(=O)N1CCC[C@H]1C(=O)N1C[C@H](O)C[C@H]1C(=O)NCC(=O)N1CCC[C@H]1C(=O)N1C[C@H](O)C[C@H]1C(=O)NCC(=O)N[C@@H](CCCNC(=N)N)C(=O)N1C[C@H](O)C[C@H]1C(=O)NCC(=O)N[C@@H](CCCCN)C(=O)N[C@@H](CCCNC(=N)N)C(=O)NCC(=O)N[C@@H](CCCCN)C(=O)N1C[C@H](O)C[C@H]1C(=O)NCC(=O)N1CCC[C@H]1C(=O)N1C[C@H](O)C[C@H]1C(=O)NCC(=O)N1CCC[C@H]1C(=O)N1C[C@H](O)C[C@H]1C(=O)NCC(=O)N1CCC[C@H]1C(=O)N1C[C@H](O)C[C@H]1C(=O)NCC(=O)NCC(N)=O` [AchE-HG-C2, Ac-GPO-GPO-GRO-GKR-GKO-GPO-GPO-GPO-GG-NH2] (Ac-GP[Hyp]GP[Hyp]GR[Hyp]GKRGK[Hyp]GP[Hyp]GP[Hyp]GP[Hyp]GG-NH2), in data set [1], the ΔTm is 0.3 °C. Also, in data set [2], the “Tm^obs” value was 26.9 °C.

For the compound `CC(=O)NCC(=O)N1CCC[C@H]1C(=O)N1C[C@H](O)C[C@H]1C(=O)NCC(=O)N1CCC[C@H]1C(=O)N1C[C@H](O)C[C@H]1C(=O)NCC(=O)N[C@@H](CCCNC(=N)N)C(=O)N1C[C@H](O)C[C@H]1C(=O)NCC(=O)N[C@@H](CCCNC(=N)N)C(=O)N[C@@H](CCCCN)C(=O)NCC(=O)N[C@@H](CCCNC(=N)N)C(=O)N1C[C@H](O)C[C@H]1C(=O)NCC(=O)N1CCC[C@H]1C(=O)N1C[C@H](O)C[C@H]1C(=O)NCC(=O)N1CCC[C@H]1C(=O)N1C[C@H](O)C[C@H]1C(=O)NCC(=O)N1CCC[C@H]1C(=O)N1C[C@H](O)C[C@H]1C(=O)NCC(=O)N1CCC[C@H]1C(=O)N1C[C@H](O)C[C@H]1C(=O)NCC(=O)N1CCC[C@H]1C(=O)N1C[C@H](O)C[C@H]1C(=O)NCC(N)=O` [AchE-P126 (r), Ac-GPO-GPO-GRO-GRK-GRO-(GPO)5-G-NH2] (Ac-GP[Hyp]GP[Hyp]GR[Hyp]GRKGR[Hyp]GP[Hyp]GP[Hyp]GP[Hyp]GP[Hyp]GP[Hyp]G-NH2), the ΔTm in data set [1] is −2.6 °C. In data set [2], the “Tm^obs” value worked out at 30.0 °C.

`CC(=O)NCC(=O)N1CCC[C@H]1C(=O)N1C[C@H](O)C[C@H]1C(=O)NCC(=O)N1CCC[C@H]1C(=O)N1C[C@H](O)C[C@H]1C(=O)NCC(=O)N[C@@H](CCCNC(=N)N)C(=O)N[C@@H](CCC(N)=O)C(=O)NCC(=O)N[C@@H](CCCCN)C(=O)N[C@@H](CCCNC(=N)N)C(=O)NCC(=O)N[C@@H](CCCCN)C(=O)N1C[C@H](O)C[C@H]1C(=O)NCC(=O)N1CCC[C@H]1C(=O)N1C[C@H](O)C[C@H]1C(=O)NCC(=O)N1CCC[C@H]1C(=O)N1C[C@H](O)C[C@H]1C(=O)NCC(=O)N1CCC[C@H]1C(=O)N1C[C@H](O)C[C@H]1C(=O)NCC(=O)NCC(N)=O` [AchE-HG-Alt, Ac-GPO-GPO-GRQ-GKR-GKO-GPO-GPO-GPO-GG-NH2] (Ac-GP[Hyp]GP[Hyp]GRQGKRGK[Hyp]GP[Hyp]GP[Hyp]GP[Hyp]GG-NH2): in data set [1], the ΔTm is −0.5 °C. Further, the “Tm^obs” value in data set [2] was 20.1 °C.

Turning to `CC(=O)NCC(=O)N1CCC[C@H]1C(=O)N1C[C@H](O)C[C@H]1C(=O)NCC(=O)N1CCC[C@H]1C(=O)N1C[C@H](O)C[C@H]1C(=O)NCC(=O)N1CCC[C@H]1C(=O)N1C[C@H](O)C[C@H]1C(=O)NCC(=O)N[C@@H](CCCCN)C(=O)N[C@@H](CCCNC(=N)N)C(=O)NCC(=O)N[C@@H](CCCCN)C(=O)N1C[C@H](O)C[C@H]1C(=O)NCC(=O)N1CCC[C@H]1C(=O)N1C[C@H](O)C[C@H]1C(=O)NCC(=O)N1CCC[C@H]1C(=O)N1C[C@H](O)C[C@H]1C(=O)NCC(=O)N1CCC[C@H]1C(=O)N1C[C@H](O)C[C@H]1C(=O)NCC(=O)NCC(N)=O` [AchE-HG-C1, Ac-GPO-GPO-GPO-GKR-GKO-GPO-GPO-GPO-GG-NH2] (Ac-GP[Hyp]GP[Hyp]GP[Hyp]GKRGK[Hyp]GP[Hyp]GP[Hyp]GP[Hyp]GG-NH2), the ΔTm in data set [1] is −1.0 °C. The “Tm^obs” value in data set [2] was found to be 32.3 °C.

As to `CC(=O)NCC(=O)N[C@@H](CO)C(=O)N1C[C@H](O)C[C@H]1C(=O)NCC(=O)N[C@@H](C)C(=O)N[C@@H](CCC(N)=O)C(=O)NCC(=O)N[C@@H](CC(C)C)C(=O)N[C@@H](CCC(N)=O)C(=O)NCC(=O)N1CCC[C@H]1C(=O)N[C@@H](CCCNC(=N)N)C(=O)NCC(=O)N[C@@H](CC(C)C)C(=O)N1C[C@H](O)C[C@H]1C(=O)NCC(=O)N[C@H](C(=O)N1C[C@H](O)C[C@H]1C(=O)NCC(=O)N1CCC[C@H]1C(=O)N1C[C@H](O)C[C@H]1C(=O)NCC(=O)N1CCC[C@H]1C(=O)N1C[C@H](O)C[C@H]1C(=O)NCC(=O)N1CCC[C@H]1C(=O)N1C[C@H](O)C[C@H]1C(=O)NCC(=O)N1CCC[C@H]1C(=O)N1C[C@H](O)C[C@H]1C(=O)NCC(=O)N[C@H](C(=O)O)C(C)C)[C@@H](C)O` [T2-508, Ac-GSO-GAQ-GLQ-GPR-GLO-GTO-(GPO)4-GV-OH] (Ac-GS[Hyp]GAQGLQGPRGL[Hyp]GT[Hyp]GP[Hyp]GP[Hyp]GP[Hyp]GP[Hyp]GV-OH), in data set [1], the ΔTm is 3.9 °C. For the same compound, the “Tm^obs” value in data set [2] was found to be 25.0 °C.
